Source: patent US5594022A, “Tachykinin antagonists” (Warner-Lambert Company, priority 1994, dated 1997)
Entries after “also recorded” stand apart in the source; their conditions may differ.

Assays:
[1] = test system: NK1 receptor; settings: literature; cited from earlier work
[2] = target: T1, NK1 receptor (Guinea Pig Trachea) (Cavia porcellus, UniProt P30547); assay: NK1 antagonist activity, guinea pig trachea; settings: read-out: NK1 Antagonist Activity pkB/pA2, Guinea Pig Trachea (converted)
T1 construct: Trachea; from tissue; host or cells: guinea pig trachea

[3] = target: T2, NK1 receptor (Guinea Pig Ileum) (Cavia porcellus, UniProt P30547); assay: NK1 antagonist activity, guinea pig ileum; settings: read-out: NK1 Antagonist Activity pkB/pA2, Guinea Pig Ileum (converted)
T2 construct: Ileum; from tissue; host or cells: guinea pig ileum

[4] = target: T3, NK1 receptor (Cavia porcellus, UniProt P30547); assay: In vitro NK1 receptor binding ([125I] Bolton Hunter Substance-P, guinea pig cerebral cortex membranes); settings: Binding IC50, In Vitro NK1 Receptor Binding, [125I-BH]Substance-P 0.1 nM
T3 construct: guinea pig cerebral cortex membranes; from tissue; host or cells: guinea pig cerebral cortex membranes
Method: The compounds of the invention were also evaluated in three tachykinin binding assays.

[5] = target: T3, NK1 receptor; assay: Antagonism of substance-P methylester in a number of in vitro NK1 preparations; set-up: species or system guinea pig
From the text: Therefore, it could be of use in therapeutic disorders where attenuation of the NK1 receptor response is an appropriate form of intervention.

[6] = test system: NK2 receptors; settings: literature; cited from earlier work
[7] = test system: NK3 receptors; settings: literature; cited from earlier work

T3 sequence (P30547 whole entry): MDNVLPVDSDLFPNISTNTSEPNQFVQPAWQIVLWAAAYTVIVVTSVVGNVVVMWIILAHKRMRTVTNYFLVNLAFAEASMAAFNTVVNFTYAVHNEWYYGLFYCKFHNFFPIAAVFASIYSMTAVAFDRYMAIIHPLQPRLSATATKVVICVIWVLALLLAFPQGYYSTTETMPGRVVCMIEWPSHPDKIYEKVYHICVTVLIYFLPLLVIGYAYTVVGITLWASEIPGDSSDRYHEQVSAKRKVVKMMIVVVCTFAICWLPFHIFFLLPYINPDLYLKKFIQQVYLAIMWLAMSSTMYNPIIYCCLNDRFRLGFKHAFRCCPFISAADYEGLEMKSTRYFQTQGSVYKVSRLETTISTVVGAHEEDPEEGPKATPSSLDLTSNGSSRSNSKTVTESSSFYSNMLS
T2 sequence (P30547 whole entry): as above
T1 sequence (P30547 whole entry): as above

## COc1ccccc1CN[C@H]1C2CCN(CC2)[C@H]1C(c1ccccc1)c1ccccc1 [CP-96,345]
[1]
  NK1 receptor affinity or activity, in words: antagonists at the NK1 receptor

## C[C@H](NC(=O)[C@@](C)(Cc1c[nH]c2ccccc12)NC(=O)OCc1ccccc1)c1ccccc1 [Example 15]
[2]
  Kb: 39.8 nM
[3]
  Kb: 15.8 nM
[4]
  IC50: 36 nM
[5]; listed as Ex. 15
  NK1 receptor antagonism, in words: antagonist of the NK1 receptor; also recorded: tachykinin NK1 receptor antagonist
[5]; read-out: pKB against substance-P methylester on these tissues (converted)
  Kb: ~10 nM

## CN(Cc1ccccc1)C(=O)[C@H](Cc1ccc2ccccc2c1)NC(=O)[C@@H]1C[C@@H](O)CN1C(=O)c1cn(C)c2ccccc12 [FK 888]
[1]
  NK1 receptor affinity or activity, in words: high affinity for the NK1 receptor

## COc1ccccc1CC(=N)N1C[C@@H]2C(=O)CCC(c3ccccc3)(c3ccccc3)[C@@H]2C1 [RP 67580]
[1]
  NK1 receptor affinity or activity, in words: antagonists at the NK1 receptor

## CC(=O)NC1(c2ccccc2)CCN(CC[C@H](CN(C)C(=O)c2ccccc2)c2ccc(Cl)c(Cl)c2)CC1 [SR 48969]
[6]
  NK2 receptor affinity or selectivity, in words: high affinity and selectivity for NK2 receptors

## NKA: mammalian tachykinin neuropeptide
[6]
  NK2 receptor affinity or selectivity, in words: bind preferentially to NK2

## NKB: mammalian tachykinin neuropeptide
[7]
  NK3 receptor binding, in words: bind preferentially

## Substance-P
[1]
  NK1 receptor affinity or activity, in words: highest affinity for NK1 receptors
